Data reported in US20100144755A1 (Glaxo Group Limited, priority 2006, published 2010).
Counter-ions that a name gives are not always drawn.

The molecules below were run on TNF-stimulated IL8 production by human neutrophils (assay: TNF-stimulated IL-8 production from human neutrophils). Settings: Neutrophil, TNF 100 ng/ml, about 20 hrs, bounds reflect the top concentration screened, for 202(c) and 120 a range over multiple runs with ends given as 'greater than'.
Format: cell-based
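Also: IL-8 in cell-free supernatant quantified by sandwich ELISA, inhibition calculated against a compound-free control.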
Experimental: TNF-Stimulated IL-8 Production from Human Neutrophils
The effect of test compounds on TNF-stimulated IL8 production by human neutrophils is measured as follows. Neutrophils are prepared from blood obtained from consenting donors, using standard methods. Blood is collected in heparinized syringes and layered over histopaque (30 ml/20 ml). Following centrifugation, the red cell pellet is resuspended in PBS and purified over a dextran gradient. […] Cells are added (0.5-1 ml) to 48 well plates already containing compound at 1000× final concentration in neat DMSO or 10% DMSO in RPMI1640 with 10% FBS. TNF (final concentration 100 ng/ml) is used as the stimulus. Cells incubated for approximately 20 hrs at 37° C., 5% CO2. Levels of IL-8 in the cell free supernatant are determined by sandwich ELISA, and inhibition relative to a control with DMPO but no compound is calculated.

IC50	SMILES
> 100 nM	Cc1ccc(NC(=O)c2cccs2)cc1-c1nc(S(C)(=O)=O)nc2c1ccc(=O)n2-c1c(F)cccc1F [7(c), N-{3-[8-(2,6-difluorophenyl)-2-(methylsulfonyl)-7-oxo-7,8-dihydropyrido[2,3-d]pyrimidin-4-yl]-4-methylphenyl}-2-thiophenecarboxamide]
> 100 nM	Cc1ccc(NC(=O)c2cccs2)cc1-c1nc(NC2CCNCC2)nc2c1ccc(=O)n2-c1c(F)cccc1F [7(d), N-{3-[8-(2,6-difluorophenyl)-7-oxo-2-(4-piperidinylamino)-7,8-dihydropyrido[2,3-d]pyrimidin-4-yl]-4-methylphenyl}-2-thiophenecarboxamide]
> 100 nM	Cc1cc(C(=O)Nc2ccc(C)c(-c3nc(NC4CCNCC4)nc4c3ccc(=O)n4-c3c(F)cccc3F)c2)ccc1F [12(c), N-{3-[8-(2,6-difluorophenyl)-7-oxo-2-(4-piperidinylamino)-7,8-dihydropyrido[2,3-d]pyrimidin-4-yl]-4-methylphenyl}-4-fluoro-3-methylbenzamide]
> 100 nM	Cc1ccc(NC(=O)c2ccc(Cl)nc2)cc1-c1nc(NC2CCNCC2)nc2c1ccc(=O)n2-c1c(F)cccc1F [14(c), 6-chloro-N-{3-[8-(2,6-difluorophenyl)-7-oxo-2-(4-piperidinylamino)-7,8-dihydropyrido[2,3-d]pyrimidin-4-yl]-4-methylphenyl}-3-pyridinecarboxamide]
> 100 nM	Cc1ccc(C(=O)O)cc1-c1nc(NC(CO)CO)nc2c1ccc(=O)n2-c1c(F)cccc1F [80(a), 3-(8-(2,6-difluorophenyl)-2-{[2-hydroxy-1-(hydroxymethyl)-ethyl]amino}-7-oxo-7,8-dihydropyrido[2,3-d]pyrimidin-4-yl)-4-methylbenzoic acid]
> 100 nM	Cc1ccc(C(=O)NCc2ccccc2)cc1-c1nc([S+](C)[O-])nc2c1ccc(=O)n2-c1c(F)cccc1F (stereo not drawn) [116(b), 3-[8-(2,6-difluorophenyl)-2-(methylsulfinyl)-7-oxo-7,8-dihydropyrido[2,3-d]pyrimidin-4-yl]-4-methyl-N-(phenylmethyl)benzamide]
> 100 nM	CCN(CC)CCCNc1nc(-c2cc(C(=O)O)ccc2C)c2ccc(=O)n(-c3c(F)cccc3F)c2n1 [118(a), 3-[2-{[3-(diethylamino)propyl]amino}-8-(2,6-difluorophenyl)-7-oxo-7,8-dihydropyrido[2,3-d]pyrimidin-4-yl]-4-methylbenzoic acid]
> 100 nM	Cc1ccc(C(=O)O)cc1-c1nc(N2CCC(N3CCC(C)CC3)CC2)nc2c1ccc(=O)n2-c1c(F)cccc1F [163(b), 3-[8-(2,6-difluorophenyl)-2-(4-methyl-1,4′-bipiperidin-1′-yl)-7-oxo-7,8-dihydropyrido[2,3-d]pyrimidin-4-yl]-4-methylbenzoic acid]
> 100 nM	CCCNC(=O)c1ccc(-c2nc(NCCCN(CC)CC)nc3c2ccc(=O)n3-c2c(F)cccc2F)cc1 [188(b), 4-[2-{[3-(diethylamino)propyl]amino}-8-(2,6-difluorophenyl)-7-oxo-7,8-dihydropyrido[2,3-d]pyrimidin-4-yl]-N-propylbenzamide]
> 100 nM	CCN(CC)CCCNc1nc(-c2cccc(C(=O)O)c2)c2ccc(=O)n(-c3c(F)cccc3F)c2n1 [193(a), 3-[2-{[3-(diethylamino)propyl]amino}-8-(2,6-difluorophenyl)-7-oxo-7,8-dihydropyrido[2,3-d]pyrimidin-4-yl]benzoic acid]
10 to 100 nM	Cc1ccc(C(=O)NCCc2ccccc2)cc1-c1nc(NCCN(C)C(=O)OC(C)(C)C)nc2c1ccc(=O)n2-c1c(F)cccc1F [202(c), 1,1-dimethylethyl(2-{[8-(2,6-difluorophenyl)-4-(2-methyl-5-{[(2-phenylethyl)amino]carbonyl}phenyl)-7-oxo-7,8-dihydropyrido[2,3-d]pyrimidin-2-yl]amino}ethyl)methylcarbamate]
> 100 nM	Cc1ccc(NC(=O)c2cccs2)cc1-c1nc(NCc2ncc[nH]2)nc2c1ccc(=O)n2-c1c(F)cccc1F [Example 10, N-(3-{8-(2,6-difluorophenyl)-2-[(1H-imidazol-2-ylmethyl)amino]-7-oxo-7,8-dihydropyrido[2,3-d]pyrimidin-4-yl}-4-methylphenyl)-2-thiophenecarboxamide]
> 100 nM	CNCCNc1nc(-c2cc(NC(=O)c3cccs3)ccc2C)c2ccc(=O)n(-c3c(F)cccc3F)c2n1 [Example 11, N-[3-(8-(2,6-difluorophenyl)-2-{[2-(methylamino)ethyl]amino}-7-oxo-7,8-dihydropyrido[2,3-d]pyrimidin-4-yl)-4-methylphenyl]-2-thiophenecarboxamide]
> 100 nM	Cc1ccc(NC(=O)c2ccc(Cl)nc2)cc1-c1nc(N2CCC(N)CC2)nc2c1ccc(=O)n2-c1c(F)cccc1F [Example 15, N-{3-[2-(4-amino-1-piperidinyl)-8-(2,6-difluorophenyl)-7-oxo-7,8-dihydropyrido[2,3-d]pyrimidin-4-yl]-4-methylphenyl}-6-chloro-3-pyridinecarboxamide]
> 100 nM	Cc1ccc(NC(=O)c2ccc(Cl)nc2)cc1-c1nc(NC2CC(C)(C)NC(C)(C)C2)nc2c1ccc(=O)n2-c1c(F)cccc1F [Example 16, 6-chloro-N-(3-{8-(2,6-difluorophenyl)-7-oxo-2-[(2,2,6,6-tetramethyl-4-piperidinyl)amino]-7,8-dihydropyrido[2,3-d]pyrimidin-4-yl}-4-methylphenyl]-3-pyridinecarboxamide]
> 100 nM	Cc1ccc(NC(=O)c2ccc(Cl)nc2)cc1-c1nc(NCc2ncc[nH]2)nc2c1ccc(=O)n2-c1c(F)cccc1F [Example 17, 6-chloro-N-(3-{8-(2,6-difluorophenyl)-2-[(1H-imidazol-2-ylmethyl)amino]-7-oxo-7,8-dihydropyrido[2,3-d]pyrimidin-4-yl}-4-methylphenyl)-3-pyridinecarboxamide]
> 100 nM	Cc1ccc(NC(=O)c2cn(C)cn2)cc1-c1nc(NC(CO)CO)nc2c1ccc(=O)n2-c1c(F)cccc1F [Example 51, N-[3-(2,6-difluorophenyl)-2-{[2-hydroxy-1-(hydroxymethyl)ethyl]amino}-7-oxo-7,8-dihydropyrido[2,3-d]pyrimidin-4-yl)-4-methylphenyl]-1-methyl-1H-imidazole-4-carboxamide trifluoroacetate]
> 100 nM	Cc1ccc(NC(=O)CCNC(=O)CCC(=O)O)cc1-c1nc(NC(CO)CO)nc2c1ccc(=O)n2-c1c(F)cccc1F [Example 52, 4-[(3-{[3-(8-(2,6-difluorophenyl)-2-{[2-hydroxy-1-(hydroxymethyl)ethyl]amino}-7-oxo-7,8-dihydropyrido[2,3-d]pyrimidin-4-yl)-4-methylphenyl]amino}-3-oxopropyl)amino]-4-oxobutanoic acid trifluoroacetate]
> 100 nM	Cc1ccc(NC(=O)c2cc[nH]n2)cc1-c1nc(NC(CO)CO)nc2c1ccc(=O)n2-c1c(F)cccc1F [Example 53, N-[3-8-(2,6-difluorophenyl-2-{[2-hydroxy-1-(hydroxymethyl)ethyl]amino}-7-oxo-7,8-dihydropyrido[2,3-d]pyrimidin-4-yl)-4-methylphenyl]-1H-pyrazole-3-carboxamide trifluoroacetate]
> 100 nM	Cc1ccc(N)cc1-c1nc(NC2CC(C)(C)NC(C)(C)C2)nc2c1ccc(=O)n2-c1c(F)cccc1F [Example 110, 4-(5-amino-2-methylphenyl)-8-(2,6-difluorophenyl)-2-[(2,2,6,6-tetramethyl-4-piperidinyl)amino]pyrido[2,3-d]pyrimidin-7(8H)-one]
> 100 nM	Cc1ccc(N)cc1-c1nc(NC2CCNCC2)nc2c1ccc(=O)n2-c1c(F)cccc1F [Example 111, 4-(5-amino-methylphenyl)-8-(2,6-difluorophenyl)-2-(4-piperidinylamino)-pyrido[2,3-d]pyrimidin-7(8H)-one]
> 10 nM	CCN(CC)CCCNc1nc(-c2cc(C(=O)N[C@@H](C)C(C)C)ccc2C)c2ccc(=O)n(-c3c(F)cccc3F)c2n1 [Example 131, 3-[2-{[3-(diethylamino)propyl]amino}-8-(2,6-difluorophenyl)-7-oxo-7,8-dihydropyrido[2,3-d]pyrimidin-4-yl]-N-[(1S)-1,2-dimethylpropyl]-4-methylbenzamide]
> 100 nM	CCN(CC)CCCNc1nc(-c2cccc(C(=O)Nc3ccc(F)cc3)c2C)c2ccc(=O)n(-c3c(F)cccc3F)c2n1 [Example 152, 3-[2-{[3-(diethylamino)propyl]amino}-8-(2,6-difluorophenyl)-7-oxo-7,8-dihydropyrido[2,3-d]pyrimidin-4-yl]-N-(4-fluorophenyl)-2-methylbenzamide]
> 100 nM	CCCNC(=O)c1cccc(-c2nc(NCCCN(CC)CC)nc3c2ccc(=O)n3-c2c(F)cccc2F)c1C [Example 153, 3-[2-{[3-(diethylamino)propyl]amino}-8-(2,6-difluorophenyl)-7-oxo-7,8-dihydropyrido[2,3-d]pyrimidin-4-yl]-2-methyl-N-propylbenzamide]
> 100 nM	CCN(CC)CCCNc1nc(-c2cccc(C(=O)NCC(C)C)c2C)c2ccc(=O)n(-c3c(F)cccc3F)c2n1 [Example 154, 3-[2-{[3-(diethylamino)propyl]amino}-8-(2,6-difluorophenyl)-7-oxo-7,8-dihydropyrido[2,3-d]pyrimidin-4-yl]-2-methyl-N-(2-methylpropyl)benzamide]
> 100 nM	CCN(CC)CCCNc1nc(-c2cccc(C(=O)NC3CC3)c2C)c2ccc(=O)n(-c3c(F)cccc3F)c2n1 [Example 155, N-cyclopropyl-3-[2-{[3-(diethylamino)propyl]amino}-8-(2,6-difluorophenyl)-7-oxo-7,8-dihydropyrido[2,3-d]pyrimidin-4-yl]-2-methylbenzamide]
> 100 nM	CCN(CC)CCCNc1nc(-c2cccc(C(=O)NCC#N)c2C)c2ccc(=O)n(-c3c(F)cccc3F)c2n1 [Example 156, N-(cyanomethyl)-3-[2-{[3-(diethylamino)propyl]amino}-8-(2,6-difluorophenyl)-7-oxo-7,8-dihydropyrido[2,3-d]pyrimidin-4-yl]-2-methylbenzamide]
